From ChEMBL document CHEMBL1134404, “Bisubstrate analogue inhibitors of 6-hydroxymethyl-7,8-dihydropterin pyrophosphokinase: synthesis and biochemical and crystallographic studies” (J Med Chem, 2001)
pKd: −log10 of the molar value.

Assay: Compound was tested for the binding affinity towards HPPK Receptor without Mg 2
Set-up: species or system Escherichia coli

## Nc1nc2ncc(COP(=O)(O)OP(=O)(O)OP(=O)(O)OP(=O)(O)OC[C@H]3O[C@@H](n4cnc5c(N)ncnc54)[C@H](O)[C@@H]3O)nc2c(=O)[nH]1
  pKd: 5.71
